Measurements as given in patent US6730332B2, “Herbal composition having antiallergic properties and a process for the preparation thereof” (Natural Remedies Pvt. Ltd., priority 2000, dated 2004).
Each block holds one compound with its values, some of them ahead of it.

Tests used:
mouse paw edema = test: Compound 48/80 induced mouse paw edema; assay type: in vivo, mice; settings: 1 mg/kg mouse body weight, P<0.05
Method: Compound 48/80 (Condensation product of N-methyl-p-methoxyphenylamine with formaldehyde) was used to induce mouse paw edema in mice. In this context the reference may be made to Nair A M, Tamhankar C P and Saraf M N (1995) Indian drugs, 32(6), 277-282. The animals were treated with NR-A2 at doses of 175, 225 and 275 mg/kg body weight orally 30 days prior to the test. Standard group received Ketotifen in the dose of 1 mg/kg b.w.

mast cells = test: mast cell stabilization bioassay; assay type: cell-based, rats
Description: The present invention is based on our experience and knowledge about the usage of various herbs along with our in depth studies on traditional literature. For this project a number of plants and plant preparations were selected for detailed studies. The selected plants/extracts were then subjected to the mast cell stabilization bioassay. This bioassay has been reported to be one of the important tools in detecting the substances having antiallergic activity. In this context reference may be made to “Rajashekharan M. et al, J. Drug Dev., 1989, 2(3), 179-182.” Mast cells are basophilic cells in subcutaneous and connective tissue. They are found in large numbers in mesentery of rats and contain numerous membrane bounded granules, which contain strong pharmacologically active mediators such as histamine, SRS-A, Serotonin, bradykinin etc. The role of mast cells in pathogenesis of allergic disease has been well recognized. Mast cells contain receptors for Fc fragment of IgE antibodies. Therefore, IgE antibodies formed on exposure to antigen will combine with the mast cells. On subsequent re-exposure to the same antigen, there occurs an antigen antibody reaction which will initiate mast cell de-granulation in a similar manner as that of de-granulating agents like carbachol or the compound which is the condensation product of N-methyl-p-methoxyphenylamine with formaldehyde. […]

active paw anaphylaxis = test: Active paw anaphylaxis in mice; assay type: in vivo; settings: 14 mg/kg body weight, P<0.05
Method: Active paw anaphylaxis in mice was studied using egg albumin as the antigen adsorbed on aluminum hydroxide. In this context the reference may be made to Ghoosi R. B, Bhide M. B, (1981) Allergy Appl. Immunol., 15, 53. and Nair A. M. et al. (1995) Indian Drugs, 32(6), 277-282. The mice were dosed with NR-A2 at different doses orally in 0.5% CMC for 30 days. Prednisolone was taken as the standard. On 31st day they were sensitized with antigen, and the treatment continued. On 12^Th day after sensitization the animals were re-challenged with egg albumin in saline subcutaneously in plantar region of right hind paw while the contralateral paw received an equal volume of saline. Paw thickness was measured using pocket thickness gauge (Mitutoyo Manufacturing Co. Japan) 15 minutes after the challenge. The difference in paw thickness of right paw compared to the left paw, reflected the edema due to antigen-antibody reaction.

systemic anaphylaxis = test: Compound 48/80 induced systemic anaphylaxis in rats; assay type: in vivo; settings: 10 mg/kg
Description: The effect of NR-A2 in compound 48/80 (Condensation product of N-methyl-p-methoxyphenylamine with formaldehyde) induced systemic anaphylaxis was studied in rats. In this context the reference may be made to Y. M. Lee, Kim D. K, (1996) Journal of Ethnopharmacology, 54, 77-84. The animals were divided into five groups, one served as control, one standard and three groups for NR-A2. The standard (Prednisolone), NRA-2 & vehicle were given 30 days prior to intra-peritoneal administration of compound 48/80 (Condensation product of N-methyl-p-methoxyphenylamine with formaldehyde). The dose of Prednisolone was 10 mg/kg while those of NR-A2 were 150, 250, 350 mg/kg b.w. Number of deaths per group within one hour were calculated.

[1] = system: Freund's adjuvant induced paw edema; test: Adjuvant induced arthritis; assay type: in vivo, albino wistar rats; settings: standard, rats, P<0.05
Method: Freund's adjuvant is a mixture of dead mycobacterium finely ground in liquid paraffin at a concentration of 5 mg/ml. When injected in hind paw it produces an edema characterised as a bi-phasic response, which persists up to 21 days. The injection of Freund's adjuvant in rat hind paw produces conditions similar to rheumatoid arthritis, a delayed hypersensitivity reaction.
NR-A2 was administered to albino wistar rats orally at doses of 150, 250 and 350 mg to body weight for 30 days before and 21 days after injecting Freund's adjuvant. Paw volume was measured using plethesmograph.

SMILES: CN1CCC(=C2c3ccccc3CC(=O)c3sccc32)CC1 [Ketotifen]
inhibition of paw edema (mouse paw edema): 64.22%

EC50, mast cell stabilizing activity (mast cells; selected prototypes (Table 2)): 3.66 µg/mL
SMILES: O=C([O-])c1cc(=O)c2c(OCC(O)COc3cccc4oc(C(=O)[O-])cc(=O)c34)cccc2o1.[Na+].[Na+] [Disodiumchromoglycate]
EC50 values (mast cells; mast cell stabilization assay, screening of plant extracts (Table 1)): 3.68 µg/mL

SMILES: C[C@]12C=CC(=O)C=C1CC[C@@H]1[C@@H]2[C@@H](O)C[C@@]2(C)[C@H]1CC[C@]2(O)C(=O)CO [Prednisolone]
inhibition of paw edema (active paw anaphylaxis): 74.03%
inhibition of compound 48/80 induced anaphylaxis (deaths within one hour) (systemic anaphylaxis): 62.97%
inhibition of adjuvant paw edema [1]: 95.63%
